# From patent US10265257B2, “Personal care composition” (Innospec Limited, priority 2007, dated 2019)
# Where two headings read alike, the source gives them in different places.
# What was measured:
# [1] = system: Zein protein; conditions: stated as known for comparison compounds; cited from earlier work
# [2] = Stability of SCMI in aqueous solution (amount of SCMI present over time); type: physicochemical; conditions: 10 wt % aqueous solutions, initial pH 4.5, 5.5, 6.5, 7.5, 8.5 and 9.5, held at 48.9° C., 30 days
# Protocol: In a preliminary test the stability of SCMI in 10 wt % aqueous solutions adjusted to have initial pH values respectively of 4.5, 5.5, 6.5, 7.5, 8.5 and 9.5, each held at 48.9° C. for an extended period of days, were tested for the amount of SCMI present over the test period.
# (§1) The pH values were read using a standard electrode pH meter (Fisher Accument XL-25). The electrode was place in the composition (no further dilution) and the pH recorded.
# [3] = pH stability of SCMI solutions over time; type: physicochemical
# Protocol: as §1
# In a preliminary test 10 wt % solutions of SCMI, adjusted to have initial pH values respectively of 4.5, 5.5, 6.5, 7.5, 8.5 and 9.5, each held at 48.9° C. for an extended period of days, were tested for their pH stability over the extended period. The pH testing was as described above.
# [4] = Simple solubility tests in deionised water; type: physicochemical
# [5] = system: Zein protein; assay: Zein protocol in-vitro skin irritancy test; conditions: FIG. 3, surfactant solution 2 wt %, 1 hour at 35° C.
# Excerpt: (§2) The Zein protocol is an in-vitro test to measure skin irritancy of formulations. The method makes use of the correlation between binding ability of surfactants to proteins and the damage the surfactant causes to the skin. […] Zein protein, an insoluble protein extracted from corn kernel, is used as a model for epidermal protein and the solubility of the Zein protein in surfactant solutions is believed to be a reliable guide for the skin irritancy caused by the surfactant. The test involves establishing the amount of Zein protein which can be solubilised by surfactant. 5 g of Zein protein may be dispersed in 40 cm^3 of surfactant solution (at 2 wt % concentration). The mixture is shaken for 1 hour at 35° C., and immediately centrifuged to remove any non-solubilised Zein. The amount solubilised is estimated from the solution nitrogen content using micro-Kjeldahl method (making allowance for any nitrogen in the compound tested).
# [6] = system: Zein protein
# Excerpt: as §2
substance,measurement,setting,value
sodium cocoyl isethionate [SCI],"skin irritancy, known",[1],low irritancy
sodium cocoylmethylisethionate [SCMI],"percentage of SCMI present, Day 0 to Day 30",[2],does not change
same,pH change of sample held at highest pH value,"[3]; 10 wt % solution, initial pH 9.5, 48.9° C., first few days",small pH reduction
same,pH values from Day 0 to Day 30,"[3]; 10 wt % solutions, initial pH 4.5 to 9.5, held at 48.9° C., 30 days",substantially unchanged
same,appearance of 10 wt % in deionised water (solubility test),[4],clear solution
same,skin irritancy (Zein protocol),[5],low irritancy
sodium laureth sulfate [SLES],"skin irritancy, known",[1],significant irritancy
sodium lauroylmethylisethionate [SLMI],skin irritancy (Zein protocol),[6],low irritancy
